In patent US20040136926A1, “Intra-oral drug delivery system” (priority 2002, published 2004):
Where a SMILES comes first, the peptide text is derived from it. Bridges are numbered along the chain shown (N, C = ends). Roman numbers before positions name the chains, in order. Where no end group is shown, it is not given here. [ ]: non-standard residue; d: D form. pS = N[C@@H](COP(=O)(O)O)C(=O)O

How the values were obtained:
Candida albicans = test: Fungicidal activity of hybrid adsorbed HAP beads, fluorescent probes (membrane damage); assay type: cell-based; conditions: hybrid adsorbed HAP surface, as a function of time
Experimental: (§1) The fungicidal and bactericidal activity of the hybrid adsorbed HAP beads was determined using fluorescent probes. The increase in fluorescence as a function of microbial membrane damage was monitored. […] Candida albicans and Actinobacillus actinomycetemcomitans were used as the fungal and bacterial organisms, respectively.

[1] = tested on: Actinobacillus actinomycetemcomitans; test: Bactericidal activity of hybrid adsorbed HAP beads, fluorescent probes (membrane damage); assay type: cell-based; conditions: hybrid adsorbed HAP surface, as a function of time
Experimental: as §1

[2] = Peptide adsorption to hydroxyapatite (HAP) beads; assay type: binding; conditions: for K × 10^−5 (affinity coefficient) / N × 10^6 (adsorption parameter): adsorption to HAP, C/Q = 1/KN + C/N
Description: The extent to which the hybrid molecule gets adsorbed was examined using hydroxyapatite (HAP) beads as described previously (Raj, et al., supra, 1992).

[3] = literature (Raj, et al., 1992); cited from earlier work

Compound: CC[C@H](C)[C@@H]1NC(=O)[C@H](CCCNC(=N)N)NC(=O)[C@@H](NC(=O)[C@H](CC(C)C)NC(=O)[C@@H](N)CCCNC(=N)N)CSSC[C@@H](C(=O)N[C@@H](CCCNC(=N)N)C(=O)OC[C@H](NC(=O)[C@H](CC(=O)O)NC(=O)[C@H](CC(=O)O)NC(=O)[C@H](CC(=O)O)NC(=O)[C@H](CCC(=O)O)NC(=O)[C@@H](N)CCC(=O)O)C(=O)O)NC(=O)[C@H](C(C)C)NC(=O)[C@H](CCCNC(=N)N)NC(=O)[C@H]([C@@H](C)CC)NC(=O)[C@H](C(C)C)NC(=O)[C@H](C(C)C)NC1=O [Hybrid] (I: H-RLCRIVVIRVCR / II: H-EEDDDS-OH; disulfide I:3-I:11; ester I:C-II:6; N-terminus assumed)
- Microbial membrane damage (increase in fluorescence) vs control HAP (Candida albicans): significantly caused microbial membrane damage
- Microbial membrane damage (increase in fluorescence) vs control HAP [1]: significantly caused microbial membrane damage
- K × 10^−5 (affinity coefficient) [2]: 10.8 ± 1.8 liter mol^−1
- N × 10^6 (adsorption parameter) [2]: 1.6 ± 0.2 mol m^−2
- Affinity for HAP (in words) ([2]; hydroxyapatite beads): quite comparable to salivary statherin

Compound: D-D-D-E-E-K-F-L-R-R-I-G-R-F-G (DDDEEKFLRRIGRFG) [SNA15, Analog of SN15]
- Affinity for HAP compared with whole statherin [3]: higher affinity for HAP than the whole molecule

Compound: D-Sp-Sp-E-E-K-F-L-R-R-I-G-R-F-G (D[pS][pS]EEKFLRRIGRFG; UniProt P02808 20-34, looked up, fragment) [SN15, Amino-terminal 15-residue fragment of statherin]
- Affinity for HAP compared with whole statherin [3]: higher affinity for HAP than the whole molecule

Compound: D-Sp-Sp-EEKFLRRIGRFGYGYGPYQPVPEQPLYPQPYQPQYQQYTF (D[pS][pS]EEKFLRRIGRFGYGYGPYQPVPEQPLYPQPYQPQYQQYTF; UniProt P02808 20-62, looked up) [Statherin, Salivary phosphorylated polypeptide, reference compound]
- K × 10^−5 (affinity coefficient) [2]: 11.1 ± 2.0 liter mol^−1
- N × 10^6 (adsorption parameter) [2]: 0.9 ± 0.05 mol m^−2
